The record followed here is patent US11007232B2, “Use of neural cells derived from human pluripotent stem cells for the treatment of neurodegenerative diseases” (priority 2013, dated 2021).

This experiment has as its system DA neuron precursor cells. Description: Differentiation of DA neuron precursor cells into DA neurons with guggulsterone, FACS for TH. It counts as cell-based, human. To be noted: guggulsterone 2.5 μM for two weeks; after 30 days of differentiation. As to the method:
The DA neuron precursor cells were plated at 2000 cells/well of a 96-well plate and treated with guggulsterone (GS) at 2.5 μM for two weeks. After 30 days of differentiation, GS-treated neurons appeared mature with elaborate neurite extensions. At this stage, the derived cells expressed not only the major neuronal marker β-III-tubulin (TUJ1), but also the important DA neuron markers tyrosine hydroxylase (TH), the dopamine transporter (Dat), Foxa2, Nurr-1, and Girk2. […] The method specifically involved treating both hESC-H9-NSCs (Invitrogen) and hPSC-NSCs with Purmorphamine (2 μM) and FGF8 (100 ng/mL) in NB medium [NeuroBasal medium, 1× GlutaMAX, 1× N2/B27 Supplement (Invitrogen)] for 7 days. […] Two weeks after treatment with small molecules, all wells were visually observed and scored based on neurite density and dopamine release. For measuring neurite density, cells were fixed with 4% paraformaldehyde and phase contrast images were acquired using Cellavista Cell Imaging System (Roche Applied Science) from randomly selected fields. Neurite density was measured using the Cellavista density software image processing program. Each experimental condition was done in duplicate wells, and at least three independent experiments were conducted to acquire the final results.

For `C/C=C1\C(=O)C[C@H]2[C@@H]3CCC4=CC(=O)CC[C@]4(C)[C@H]3CC[C@]12C` [guggulsterone], the “cells gated TH positive (FACS analysis)” value is on record as “more than 97%”.
